The values that follow come from patent US20150344404A1, “PDK4 INHIBITOR AND USE THEREOF” (THE KITASATO INSTITUE, priority 2012, published 2015).

One data set has as its system PDK isozymes 1, 2 and 3.
Test: not given
As to conditions: background art; cited from earlier work.
As to `CN(C)C(=O)c1ccc(S(=O)(=O)c2ccc(NC(=O)[C@@](C)(O)C(F)(F)F)c(Cl)c2)cc1` [AZD7545], the “IC50 against PDK isozymes 1, 2 and 3” value was “sub μM order”.

The target of a further data set is recombinant human PDK4 (Homo sapiens, UniProt Q16654). The experiment in a line: PDK4 enzyme inhibitory activity by off-chip mobility shift assay. It is filed as biochemical. Conditions: Table 34; recombinant human PDK4, room temperature, 5 hours; read-out: IC50, PDK inhibitory activity of representative compounds. Here is the method: Measurement of PDK4/PDK2 inhibitory activity by off-chip mobility shift assay: The compound solution (5 μL), 4×substrate/ATP/metal mixture (5 μL) and 2×recombinant human PDK4 (5 μL) were added to 384 well micro plate. After reacting at room temperature for 5 hours, the reaction stop solution (60 μL) was added to above solution. The substrate peptide (S) and phosphorylated peptide (P) was quantified using LabChip3000, then the inhibitory activity was calculated from the ratio (P/P+S).
Chain of recombinant human PDK4 (Q16654 whole entry): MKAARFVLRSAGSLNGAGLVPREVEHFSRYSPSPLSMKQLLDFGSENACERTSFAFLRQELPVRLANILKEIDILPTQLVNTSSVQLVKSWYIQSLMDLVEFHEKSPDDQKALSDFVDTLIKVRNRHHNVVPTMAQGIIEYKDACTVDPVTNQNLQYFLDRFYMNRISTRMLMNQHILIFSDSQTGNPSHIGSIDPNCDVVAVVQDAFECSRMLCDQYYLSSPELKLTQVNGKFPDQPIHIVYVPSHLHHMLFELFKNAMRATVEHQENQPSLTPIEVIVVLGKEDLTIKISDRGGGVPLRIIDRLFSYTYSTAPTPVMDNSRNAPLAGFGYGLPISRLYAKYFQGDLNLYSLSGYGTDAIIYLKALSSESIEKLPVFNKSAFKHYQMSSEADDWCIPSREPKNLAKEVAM
In the case of `CC1=CC(=O)c2cc(C(C)O)ccc2C1=O` (racemic) [KIS92, (±)-2-methyl-6-(1-hydroxyethyl)-1,4-naphthoquinone], the concentration for half-maximal inhibition (IC50) is 46 µM.

Consider `CC1=CC(=O)c2c(O)cc(C(=O)O)cc2C1=O` [KIS90, 7-carboxy-5-hydroxy-2-methyl-1,4-naphthoquinone], for which the IC50 came out at 20 µM.

In the case of `COC(=O)c1ccc2c(c1)C(=O)C=C(C)C2=O` [KIS95, 6-carbomethoxy-2-methyl-1,4-naphthoquinone], the half-maximal inhibitory concentration (IC50) was 26 µM.

Take `CC1=CC(=O)c2cc(C(=O)NCC(=O)O)ccc2C1=O` [KIS99, N-[(1,4-dihydro-1,4-dioxo-2-methyl-6-naphthylenyl)carbonyl]glycine]: the IC50 was found to be 21 µM.

Turning to `CC1=CC(=O)c2cc(CO)ccc2C1=O` [KIS96, 6-hydroxymethyl-2-methyl-1,4-naphthoquinone], the IC50 came to 30 µM.

`CC1=CC(=O)c2ccc(C(=O)O)cc2C1=O` [KIS78, 7-carboxyl-2-methyl-1,4-naphthoquinone]: the IC50 came to 46 µM.

Take `CC1=CC(=O)c2cc(C(=O)O)ccc2C1=O` [KIS93, 6-carboxyl-2-methyl-1,4-naphthoquinone]: the IC50 came to 36 µM.

For the compound `CC1=CC(=O)c2cc(C(=O)NCC(=O)OC(C)(C)C)ccc2C1=O` [KIS98, Glycine, N-[(1,4-dihydro-1,4-dioxo-2-methyl-6-naphthylenyl)carbonyl], tert-butyl ester], the IC50 is 23 µM.

Take `CC1=CC(=O)c2ccccc2C1=O` [KIS12]: the IC50 was found to be 38 µM.

Consider `COC1=CC(=O)c2ccccc2C1=O` [KIS69], for which the IC50 stood at 26 µM.

With `O=C1CCC(=O)c2c(O)ccc(O)c21` [KIS58], the IC50 was found to be 12 µM.

`COC(=O)c1cc(O)c2c(c1)C(=O)C(C)=CC2=O` [KIS79, 7-carbomethoxy-5-hydroxy-2-methyl-1,4-naphthoquinone]: the 50% inhibitory concentration (IC50) was determined as 9 µM.

`CC1=CC(=O)c2cc(C=O)ccc2C1=O` [KIS97, 6-formyl-2-methyl-1,4-naphthoquinone]: the IC50 was 18 µM.

As for `O=C(O)c1ccc2c(c1)C(=O)C=CC2=O` [KIS19], the 50% inhibitory concentration (IC50) came out at 19 µM.

For the compound `Cc1cc(N)c2ccccc2c1O` [KIS61], the IC50 worked out at 27 µM.

The same data set, now with this note: Table 35; recombinant human PDK4, room temperature, 5 hours; read-out: IC50.
In the case of `CC1=C(Br)C(=O)c2ccccc2C1=O` [KIS147], the IC50 was 26 µM.

Regarding `CC1=CC(=O)c2cc(C(=O)N[C@@H](CO)C(=O)O)ccc2C1=O` [KIS131, N-[(1,4-dihydro-1,4-dioxo-2-methyl-6-naphthylenyl)carbonyl]serine], the IC50 was found to be 20 µM.

On to `CC1=CC(=O)c2cc(C=CC(=O)NCC(=O)O)ccc2C1=O` [KIS151], for which the IC50 amounted to 17 µM.

Take `CC1=CC(=O)c2ccc(CO)cc2C1=O` [KIS128]: the IC50 was 27 µM.

With `CC1=CC(=O)c2ccc(C=O)cc2C1=O` [KIS126], the IC50 is 22 µM.

As to `CC(=O)OCc1ccc2c(c1)C(=O)C=C(C)C2=O` [KIS148], the IC50 came out at 19 µM.

Turning to `CCOC(=O)c1ccc2c(c1)C(=O)C=C(C)C2=O` [KIS127], the IC50 amounted to 26 µM.

As to `CC1=CC(=O)c2ccncc2C1=O` [KIS118], the IC50 was found to be 16 µM.

For the compound `C#CCNC(=O)c1ccc2c(c1)C(=O)C=C(C)C2=O` [KIS153], the IC50 came out at 36 µM.

System in another data set: not given
Test: not given
Conditions: background art; cited from earlier work.
For `O=C(O)C(Cl)Cl` [Dichloro acetic acid], the side effect result was “neurotoxicity”.
